ChEMBL document CHEMBL5321211, “Synthesis and evaluation of anti-yellow fever virus activity of new 6-aryl-3-R-amino-1,2,4-triazin-5(4H)-ones” (Eur J Med Chem, 2023)
≈ marks a conversion by molar mass, not a printed value.

Tests used:
Yellow fever virus [1] = assay: Antiviral activity against Yellow fever virus assessed as reduction in cytopathic effect by neutral red uptake assay; assay type: functional, organism-based
Yellow fever virus [2] = assay: Antiviral activity against Yellow fever virus; assay type: functional, organism-based
Yellow fever virus [3] = assay: Antiviral activity against Yellow fever virus African green monkey Vero cells assessed as reduction in cytopathic effect; assay type: functional, organism-based
Yellow fever virus [4] = assay: Antiviral activity against Yellow fever virus 17D assessed as reduction in cytopathic effect incubated for 30 mins; assay type: functional, organism-based; details: 0.5 h
[5] = Cytotoxicity against African green monkey Vero cells assessed as inhibition of cell growth by neutral red uptake assay; assay type: toxicity, cell-based, Chlorocebus sabaeus
Yellow fever virus [6] = assay: Antiviral activity against Yellow fever virus 17D infected in African green monkey Vero assessed as reduction in cytopathic effect preincubated with compound for 5 mins followed by viral infection and measured at 72 to 120 hrs by neutral red uptake assay; assay type: functional, organism-based
[7] = Selectivity index, ratio of IC50 for cytotoxicity against African green monkey Vero cells assessed as inhibition of cell growth by visual analysis to EC50 for antiviral activity against Yellow fever virus 17D infected in African green monkey Vero assessed as reduction in cytopathic effect; assay type: toxicity, cell-based; details: read-out: Ratio IC50/EC50
[8] = Cytotoxicity against African green monkey Vero cells assessed as inhibition of cell growth by visual analysis; assay type: toxicity, cell-based, Chlorocebus sabaeus
[9] = Selectivity index, ratio of IC50 for cytotoxicity against African green monkey Vero cells assessed as inhibition of cell growth by neutral red uptake assay to EC50 for antiviral activity against Yellow fever virus 17D infected in African green monkey Vero assessed as reduction in cytopathic effect; assay type: toxicity, cell-based; details: read-out: Ratio IC50/EC50
Yellow fever virus [10] = assay: Antiviral activity against Yellow fever virus 17D infected in African green monkey Vero assessed as reduction in cytopathic effect preincubated with compound for 5 mins followed by viral infection and measured at 72 to 120 hrs by visual analysis; assay type: functional, organism-based
Yellow fever virus [11] = assay: Antiviral activity against Yellow fever virus 17D infected in African green monkey Vero assessed as reduction in virus yield preincubated with compound for 5 mins followed by viral infection and measured at 72 to 120 hrs; assay type: functional; details: time 4325-7205 min
Yellow fever virus [12] = assay: Antiviral activity against Yellow fever virus 17D infected in African green monkey Vero assessed as reduction in cytopathic effect preincubated with compound for 5 mins followed by viral infection and measured at 7 days; assay type: functional, organism-based
Yellow fever virus [13] = assay: Antiviral activity against Yellow fever virus 17D infected in African green monkey Vero assessed as reduction in cytopathic effect preincubated with compound for 5 mins followed by viral infection and measured at 72 to 120 hrs; assay type: functional, organism-based
[14] = Selectivity index, ratio of CC50 for cytotoxicity against African green monkey Vero cells to EC50 for antiviral activity against Yellow fever virus 17D infected in African green monkey Vero assessed as reduction in cytopathic effect; assay type: toxicity, cell-based; details: read-out: Ratio CC50/EC50
Yellow fever virus [15] = assay: Antiviral activity against Yellow fever virus 17D infected in Huh-7 cells assessed as reduction in cytopathic effect; assay type: functional, organism-based
[16] = Selectivity index, ratio of CC50 for cytotoxicity against human A549 cells to EC50 for antiviral activity against Yellow fever virus infected in human A549 cells assessed as reduction in virus replication; assay type: toxicity, cell-based; details: read-out: Ratio CC50/EC50
Yellow fever virus [17] = assay: Antiviral activity against Yellow fever virus infected in human A549 cells assessed as reduction in virus replication; assay type: functional, organism-based
Yellow fever virus [18] = assay: Antiviral activity against wild typeYellow fever virus infected in human Huh-7 cells assessed as reduction in virus replication; assay type: functional, organism-based
[19] = Selectivity index, ratio of CC50 for cytotoxicity against human Huh-7 cells to EC50 for antiviral activity against wild typeYellow fever virus infected in human Huh-7 cells assessed as reduction in virus replication; assay type: toxicity, cell-based; details: read-out: Ratio CC50/EC50

Compound: NC(=O)C1(N2CCCCC2)CCN(C(=O)CSc2nc3ccccc3o2)CC1
- EC50 (Yellow fever virus [1]): 7.4 µM

Compound: CCn1c(=O)/c(=C2\Sc3c(F)cccc3N2C)s/c1=C\c1cccc[n+]1C
- EC50 (Yellow fever virus [2]): < 1 µM

Compound: Nc1c(C(=O)Nc2nnc(-c3ccccc3)s2)sc2nc3c(cc12)CCCCC3
- EC50 (Yellow fever virus [3]): 6.97 µM

Compound: C/C(=N\Nc1ccccc1)c1sc(-c2cc(Cl)nc(Oc3ccc(Cl)cc3)c2)nc1C
- EC50 (Yellow fever virus [4]): 1.6 µM

Compound: O=c1[nH]c(Nc2ccc(F)cc2)nnc1Cc1ccc(F)cc1
- IC50 [5]: > 100 µg/mL
- EC50 (Yellow fever virus [6]): > 100 µg/mL

Compound: Cc1ccc(Cc2nnc(Nc3ccccc3F)[nH]c2=O)cc1
- IC50 [5]: > 100 µg/mL
- EC50 (Yellow fever virus [6]): 1 µg/mL (≈ 3.22 µM)
- selectivity ratio [7]: 8.6
- IC50 [8]: 43 µg/mL (≈ 139 µM)
- selectivity ratio [9]: > 19
- EC50 (Yellow fever virus [10]): 5 µg/mL (≈ 16.1 µM)

Compound: COc1ccccc1Nc1nnc(Cc2ccc(C)cc2)c(=O)[nH]1
- IC50 [5]: > 100 µg/mL
- EC50 (Yellow fever virus [6]): 0.94 µg/mL (≈ 2.92 µM)
- selectivity ratio [7]: 6.4
- EC90 (Yellow fever virus [11]): 50 µg/mL (≈ 155 µM)
- EC50 (Yellow fever virus [12]): 4.2 µg/mL (≈ 13 µM)
- EC50 (Yellow fever virus [13]): 13 µM
- IC50 [8]: 27 µg/mL (≈ 83.8 µM)
- selectivity ratio [14]: > 36
- selectivity ratio [9]: > 31
- EC50 (Yellow fever virus [10]): 4.2 µg/mL (≈ 13 µM)

Compound: COc1ccc(OC)c(Nc2nnc(Cc3ccc(C)cc3)c(=O)[nH]2)c1
- IC50 [5]: 16 µg/mL (≈ 45.4 µM)
- EC50 (Yellow fever virus [6]): 2.9 µg/mL (≈ 8.23 µM)
- selectivity ratio [9]: 5.5

Compound: CC(C)c1ccc(Cc2nnc(NCCN3CCOCC3)[nH]c2=O)cc1
- IC50 [5]: > 100 µg/mL
- EC50 (Yellow fever virus [6]): > 100 µg/mL

Compound: CCOc1ccc(Nc2nnc(Cc3ccc(C)cc3)c(=O)[nH]2)cc1
- IC50 [5]: > 100 µg/mL
- EC50 (Yellow fever virus [6]): > 100 µg/mL

Compound: CCOC(=O)c1ccc(Nc2nnc(Cc3ccc(C)cc3)c(=O)[nH]2)cc1
- IC50 [5]: > 100 µg/mL
- EC50 (Yellow fever virus [6]): > 100 µg/mL

Compound: Cc1ccc(Cc2nnc(Nc3ccc(F)cc3)[nH]c2=O)cc1
- IC50 [5]: > 100 µg/mL
- EC50 (Yellow fever virus [6]): 1 µg/mL (≈ 3.22 µM)
- selectivity ratio [7]: 5.1
- IC50 [8]: 51 µg/mL (≈ 164 µM)
- selectivity ratio [9]: > 14
- EC50 (Yellow fever virus [10]): 10 µg/mL (≈ 32.2 µM)

Compound: Cc1ccc(Cc2nnc(NC3CCCCC3)[nH]c2=O)cc1
- IC50 [5]: > 100 µg/mL
- EC50 (Yellow fever virus [6]): 30 µg/mL (≈ 101 µM)
- selectivity ratio [9]: > 3.3

Compound: COc1ccc(Nc2nnc(Cc3ccc(C(C)C)cc3)c(=O)[nH]2)cc1OC
- IC50 [5]: > 38 µg/mL
- EC50 (Yellow fever virus [6]): > 38 µg/mL

Compound: CCOc1ccccc1Nc1nnc(Cc2ccc(C)cc2)c(=O)[nH]1
- IC50 [5]: > 100 µg/mL
- EC50 (Yellow fever virus [6]): > 100 µg/mL

Compound: Cc1ccc(Cc2nnc(Nc3cccc(F)c3)[nH]c2=O)cc1
- IC50 [5]: > 100 µg/mL
- EC50 (Yellow fever virus [6]): 1 µg/mL (≈ 3.22 µM)
- selectivity ratio [7]: 8.2
- EC90 (Yellow fever virus [11]): 65 µg/mL (≈ 209 µM)
- EC50 (Yellow fever virus [12]): 6.2 µg/mL (≈ 20 µM)
- EC50 (Yellow fever virus [13]): 20 µM
- IC50 [8]: 51 µg/mL (≈ 164 µM)
- selectivity ratio [14]: > 53
- selectivity ratio [9]: > 14
- EC50 (Yellow fever virus [10]): 6.2 µg/mL (≈ 20 µM)

Compound: Cc1cccc(Nc2nnc(Cc3ccc(F)cc3)c(=O)[nH]2)c1C
- IC50 [5]: > 100 µg/mL
- EC50 (Yellow fever virus [6]): > 100 µg/mL

Compound: Cc1ccc(Cc2nn3c(=O)c4ccccc4nc3[nH]c2=O)cc1
- IC50 [5]: > 100 µg/mL
- EC50 (Yellow fever virus [6]): > 100 µg/mL

Compound: CC[C@H](C)[C@@H]1N=C(c2ccccc2)c2cc(Cl)ccc2N(CC(=O)O)C1=O
- EC50 (Yellow fever virus [15]): 0.21 µM

Compound: Cc1ccc(Cc2nnc(Nc3ccccc3C)[nH]c2=O)cc1
- IC50 [5]: > 100 µg/mL
- EC50 (Yellow fever virus [6]): 18 µg/mL (≈ 58.8 µM)
- selectivity ratio [9]: > 5.6

Compound: CC(=O)Nc1ccc(Nc2nnc(Cc3ccc(C)cc3)c(=O)[nH]2)cc1
- IC50 [5]: > 100 µg/mL
- EC50 (Yellow fever virus [6]): > 100 µg/mL

Compound: C[C@@H]1[C@@H](CO)O[C@@H](n2ccc(N)nc2=O)[C@]1(C)O
- EC50 (Yellow fever virus [2]): 0.7 µM

Compound: COc1ccc(Nc2nnc(Cc3ccc(C)cc3)c(=O)[nH]2)cc1OC
- IC50 [5]: 18 µg/mL (≈ 51.1 µM)
- EC50 (Yellow fever virus [6]): 11 µg/mL (≈ 31.2 µM)
- selectivity ratio [9]: 1.6

Compound: Cc1ccc(Cc2nnc(Nc3cccc(C)c3)[nH]c2=O)cc1
- IC50 [5]: > 100 µg/mL
- EC50 (Yellow fever virus [6]): 0.48 µg/mL (≈ 1.57 µM)
- EC90 (Yellow fever virus [11]): 158 µg/mL (≈ 516 µM)
- EC50 (Yellow fever virus [12]): 10 µg/mL (≈ 32.6 µM)
- EC50 (Yellow fever virus [13]): 33 µM
- IC50 [8]: 58 µg/mL (≈ 189 µM)
- selectivity ratio [14]: 23
- selectivity ratio [9]: > 29
- EC50 (Yellow fever virus [10]): 10 µg/mL (≈ 32.6 µM)

Compound: Cc1ccc(Cc2nnc(Nc3cc(C)ccc3C)[nH]c2=O)cc1
- IC50 [5]: > 100 µg/mL
- EC50 (Yellow fever virus [6]): 23 µg/mL (≈ 71.8 µM)
- selectivity ratio [9]: > 4.3

Compound: Cc1ccc(Cc2nnc(Nc3ccccc3)[nH]c2=O)cc1
- IC50 [5]: > 100 µg/mL
- EC50 (Yellow fever virus [6]): 6.2 µg/mL (≈ 21.2 µM)
- selectivity ratio [7]: 2.2
- IC50 [8]: 16 µg/mL (≈ 54.7 µM)
- selectivity ratio [9]: > 7.1
- EC50 (Yellow fever virus [10]): 7.4 µg/mL (≈ 25.3 µM)

Compound: COC(=O)c1ccc(Nc2nnc(Cc3ccc(C)cc3)c(=O)[nH]2)cc1
- IC50 [5]: > 100 µg/mL
- EC50 (Yellow fever virus [6]): > 100 µg/mL

Compound: COc1ccc(Nc2nnc(Cc3ccc(C)cc3)c(=O)[nH]2)c(OC)c1
- IC50 [5]: > 100 µg/mL
- EC50 (Yellow fever virus [6]): 1 µg/mL (≈ 2.84 µM)
- selectivity ratio [7]: 17
- EC90 (Yellow fever virus [11]): 28 µg/mL (≈ 79.5 µM)
- EC50 (Yellow fever virus [12]): 3.5 µg/mL (≈ 9.93 µM)
- EC50 (Yellow fever virus [13]): 9.9 µM
- IC50 [8]: 58 µg/mL (≈ 165 µM)
- selectivity ratio [14]: 51
- selectivity ratio [9]: > 17
- EC50 (Yellow fever virus [10]): 3.5 µg/mL (≈ 9.93 µM)

Compound: O=c1cnn([C@@H]2O[C@H](CO)[C@@H](O)[C@H]2O)c(=O)[nH]1 [6-AZAURIDINE]
- EC50 (Yellow fever virus [2]): 46 µM

Compound: O=C1OC2(c3ccccc31)c1cc(I)c(O)c(I)c1Oc1c2cc(I)c(O)c1I [ERYTHROSINE]
- selectivity ratio [16]: > 263
- EC50 (Yellow fever virus [17]): 0.57 µM

Compound: NC(=O)c1nc(F)cnc1O [FAVIPIRAVIR]
- EC50 (Yellow fever virus [2]): 330 µM

Compound: NC(=O)c1ncn([C@@H]2O[C@H](CO)[C@@H](O)[C@H]2O)n1 [RIBAVIRIN]
- EC50 (Yellow fever virus [18]): 4.9 µM
- selectivity ratio [19]: 58

Compound: CC(C)OC(=O)[C@H](C)N[P@](=O)(OC[C@H]1O[C@@H](n2ccc(=O)[nH]c2=O)[C@](C)(F)[C@@H]1O)Oc1ccccc1 [SOFOSBUVIR]
- EC50 (Yellow fever virus [18]): 4.2 µM
- selectivity ratio [19]: 90
